From patent US11267815B2, “Class of amino-substituted nitrogen-containing fused ring compounds, preparation method therefor, and use thereof” (SHANGHAI RINGENE BIOPHARMA CO., LTD., priority 2017, dated 2022)

Tests used:
Hep3B cells = assay: Hep3B cell proliferation (CellTiter-Glo, 72 hours); format: cell-based; details: read-out: Hep3B IC50
Description: 1. Test method: inoculating Hep3B cells (ATCC) in logarithmic growth phase at an appropriate density in a 96-well culture plate, with 100 μL per well. After overnight culture, different concentrations of compounds were added to stay for 72 hours, and menstruum control group (negative control) was set, and the incubation was performed under the condition of 5% CO2 at 37° C. Adding 10 mM compound stock solution to the cells, after the cells were incubated with the compounds for 72 hours, the effects of the compounds on cell proliferation were determined by CellTiter-Glo (Promega) method. 30 μL CTG reagent was added to each well and the resulting mixtures were placed in a 37° C. incubator for 2-4 hours. Then the plate was read by a full-wavelength microplate enzyme reader Envision at a […].
The inhibition rates (%) of the compounds on tumor cell growth were calculated by the following formula: inhibition rate (%)=(OD negative control well−OD administration well)/OD negative control well×100%. IC50 values were obtained by four parameters regression using Graphpad Prism 5 software.

FGFR1 = FGFR1 (Homo sapiens (Human), UniProt P11362); assay: Inhibitory activity on kinase FGFR1 (Caliper mobility shift); format: biochemical; details: read-out: FGFR1 IC50
Description: (§1) (1). Preparation of 1×Kinase buffer; (2) Preparation of the gradient concentrations of the compounds: the concentration of the compounds to be tested started from 10 μM, which was 3-fold diluted to prepare 10 dilutions, and then tested in duplicated wells. The compounds were 100-fold serially diluted into 10 dilutions with different final concentrations in 96-well plates, each of which was further diluted with 1×Kinase buffer to prepare an intermediate dilution having a concentration of 5 times the final concentration; (3) adding 5 μL of each of the prepared compound solution into the compound wells of 384-well plates, and each concentration set single well; adding 5 μL of 5% DMSO into negative control wells and positive control wells respectively; (4) preparing a kinase solution having a concentration of 2.5 times the final concentration with 1×kinase buffer; (5) adding 10 μL of kinase solution at a concentration of 2.5 times the final concentration into the compound wells and the positive control wells respectively; and adding 10 μL of 1×Kinase buffer into the negative control wells; (6) centrifuging at 1000 rpm for 30 seconds, and incubating at room temperature for 10 minutes after shaking and mixing evenly; (7) preparing a mixed solution of ATP and Kinase substrate 22 having a concentration of 2.5 times the final concentration with 1×Kinase Buffer; (8) adding 10 μL of the mixed solution of ATP and substrate at a concentration of 2.5 times the final concentration to initiate the reaction; (9) Centrifuging the 384-well plates at 1000 rpm for 30 seconds, and incubating at 28° C. for corresponding time respectively after shaking and mixing; (10) adding 30 μL of stop detection solution to stop the kinase reaction, centrifuging at 1000 rpm for 30 seconds, and shaking and mixing the mixture evenly; (11) reading the conversion rate by Caliper Ezreader II. The dose-effect curve was fitted by the log (inhibitor) vs. response-variable slope of GraphPad Prism 5 with the log value of concentration as the X axis and the percentage inhibition rate as the Y axis, then the IC50 value of each compound on the enzyme activity was obtained.

[1] = test system: various tumor cells (HuH-7, SNU-16, KG1, UM-UC-14, RT-112 etc.); assay: Proliferation inhibitory activity on various tumor cells (SRB or CCK8); format: cell-based; details: SRB or CCK8 method; read-out: proliferation inhibitory activities on various tumor cells
[2] = test system: EGFR, VEGFR, PDGFR, FGFR, RET, MET, Src, Lyn, Syk, MEK, CDK, RA, ROS; assay: Inhibitory activities on different kinases (selectivity); format: biochemical; details: versus different kinases
Description: The inhibitory activities of the compounds of the present disclosure on different kinases such as EGFR, VEGFR, PDGFR, FGFR, RET, MET, Src, Lyn, Syk, MEK, CDK, RA, ROS, etc., were also determined.

FGFR4 = FGFR4 (Homo sapiens (Human), UniProt P22455); assay: Inhibitory activity on kinase FGFR4 (Caliper mobility shift); format: biochemical; details: read-out: FGFR4 IC50
Description: as §1

[3] = Pharmacokinetics in rats or mice after intragastric and intravenous administration; format: in vivo, SD rats or BALB/c mice; details: iv 3 mg/kg, intragastric 10 mg/kg
Description: (3) LC/MS/MS method was used to measure the drug concentration in plasma at different time points after the embodiment compounds were administered to the rats or mice by intragastric administration and intravenous injection respectively, so as to study the pharmacokinetic behavior of the compounds of the present disclosure in rats or mice and evaluate the pharmacokinetic characteristics thereof. […]

xenograft tumors = assay: Xenograft tumor growth in nude mice; format: in vivo; details: oral, daily for three weeks, lower dose (even less than 20 mg/kg)
Description: 1. The tumor tissue in vigorous growth period was cut into about 1.5 mm^3, and subcutaneously inoculated into the right armpit of nude mice under sterile condition. The diameter of the subcutaneous transplanted tumors in nude mice was measured with vernier caliper, and the animals were randomly divided into groups when the average volume of the tumor reached about 130 mm^3. The embodiment compounds (prepared to the desired concentration with water for injection containing 1% Tween 80 for later use) were orally administered at a predetermined dose every day for three weeks, while a same amount of menstruum was administered in the menstruum control group. During the whole experiment, the diameter of the xenograft tumor was measured twice a week and the weight of the mice was weighed at the same time. The tumor volume (TV) was calculated by the formula: TV=½×a×b^2, where a and b represent length and width respectively. According to the measured results, the relative tumor volume (RTV) was calculated by the formula: RTV=Vt/V0, where V0 was the tumor volume measured when the mice were divided into cages for administration (i.e., d0) and Vt was the tumor volume at each measurement. […]

[4] = ADME tests: liver microsome metabolic stability and direct inhibition test; format: in vitro ADME; details: metabolic stability, direct inhibition test
Description: (1) Metabolic stability test: 150 μL system of liver microsome (final concentration 0.5 mg/mL) was used for metabolic stability incubation, the system contained NADPH (final concentration 1 mM), 1 μM test compound and positive control Midazolam or negative control Atenolol, then the reaction was terminated with Tinidazole-containing acetonitrile at 0 min, 5 min, 10 min and 30 min respectively, and the mixtures were vortexed for 10 minutes and centrifuged for 10 minutes at 15000 rmp, 50 μL of the supernatants were added into 96-well plate for injection. The metabolic stability of the compounds was calculated by measuring the relative reduction of the original drug.
(2) Direct inhibition test (DI test): Direct inhibition incubation was carried out with 100 μL system of human liver microsome (final concentration 0.2 mg/mL), the system containing NADPH (final concentration 1 mM), 10 μM compound, positive inhibitor cocktail (Ketoconazole 10 μM, Quinidine 10 μM, Sulfaphenazolum 100 μM, α-Naphthoflavone 10 μM, Tranylcypromine 1000 μM), negative control (BPS containing 0.1% DMSO) and mixed probe substrates (Midazolam 10 μM, Testosterone 100 μM, Dextromethorphan […], Diclofenac 20 μM, Phenacetin 100 μM, Mephenytoin 100 μM) was incubated for 20 minutes and then the reaction was terminated. The relative activity of enzymes was calculated by measuring the relative production of metabolites.

Sequence of FGFR1 (P11362 22-822): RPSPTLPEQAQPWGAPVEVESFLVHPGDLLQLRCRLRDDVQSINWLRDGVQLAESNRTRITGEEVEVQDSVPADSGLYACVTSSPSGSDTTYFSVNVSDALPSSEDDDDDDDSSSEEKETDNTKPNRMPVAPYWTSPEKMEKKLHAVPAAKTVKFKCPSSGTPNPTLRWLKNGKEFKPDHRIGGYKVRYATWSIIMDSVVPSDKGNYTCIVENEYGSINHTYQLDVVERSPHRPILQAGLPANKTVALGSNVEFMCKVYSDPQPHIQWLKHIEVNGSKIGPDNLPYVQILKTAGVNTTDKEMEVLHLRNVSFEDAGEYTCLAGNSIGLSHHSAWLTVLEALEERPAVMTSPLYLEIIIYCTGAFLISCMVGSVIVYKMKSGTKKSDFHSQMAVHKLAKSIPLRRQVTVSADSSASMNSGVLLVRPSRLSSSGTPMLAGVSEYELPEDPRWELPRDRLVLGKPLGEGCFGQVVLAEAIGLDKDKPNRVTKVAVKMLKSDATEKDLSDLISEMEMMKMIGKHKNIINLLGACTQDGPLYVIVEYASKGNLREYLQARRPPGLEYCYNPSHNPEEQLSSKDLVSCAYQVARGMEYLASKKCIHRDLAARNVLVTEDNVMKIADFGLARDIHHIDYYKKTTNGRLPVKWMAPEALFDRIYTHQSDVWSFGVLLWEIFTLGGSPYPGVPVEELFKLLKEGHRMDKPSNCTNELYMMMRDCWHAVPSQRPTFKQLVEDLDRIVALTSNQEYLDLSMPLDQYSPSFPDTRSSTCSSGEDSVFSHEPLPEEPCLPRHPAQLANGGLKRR
Sequence of FGFR4 (P22455 22-802): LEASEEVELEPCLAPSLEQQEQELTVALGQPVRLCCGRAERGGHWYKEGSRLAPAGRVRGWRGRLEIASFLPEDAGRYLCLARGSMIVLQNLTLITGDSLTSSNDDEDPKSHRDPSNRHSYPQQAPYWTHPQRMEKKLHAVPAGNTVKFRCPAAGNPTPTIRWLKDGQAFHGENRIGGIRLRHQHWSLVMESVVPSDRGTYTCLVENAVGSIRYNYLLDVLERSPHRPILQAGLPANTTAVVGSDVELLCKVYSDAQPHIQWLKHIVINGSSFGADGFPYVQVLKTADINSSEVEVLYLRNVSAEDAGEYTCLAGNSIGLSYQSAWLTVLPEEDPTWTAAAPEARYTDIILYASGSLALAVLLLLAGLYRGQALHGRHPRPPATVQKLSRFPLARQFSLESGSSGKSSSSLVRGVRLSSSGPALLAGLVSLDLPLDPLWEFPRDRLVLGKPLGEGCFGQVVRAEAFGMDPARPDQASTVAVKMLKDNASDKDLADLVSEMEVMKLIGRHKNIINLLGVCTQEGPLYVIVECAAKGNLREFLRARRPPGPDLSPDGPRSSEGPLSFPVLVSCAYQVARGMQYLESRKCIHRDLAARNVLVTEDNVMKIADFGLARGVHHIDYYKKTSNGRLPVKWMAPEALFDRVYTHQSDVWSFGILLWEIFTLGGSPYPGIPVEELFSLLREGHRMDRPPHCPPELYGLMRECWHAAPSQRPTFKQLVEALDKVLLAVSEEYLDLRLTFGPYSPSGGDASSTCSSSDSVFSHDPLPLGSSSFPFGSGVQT

For `C=CC(=O)Nc1ccc(-c2cn3c(n2)c(-c2c(Cl)c(OC)cc(OC)c2Cl)cc2cnc(NC)nc23)cc1` [Embodiment 17, N-(4-(6-(2,6-dichloro-3,5-phenyldimethoxyphenyl)-2-(methylamine)imidazo[1′,2′:1,6]pyrido[2,3-d]pyrimidin-8-yl)phenyl)acrylamide], the IC50 (Hep3B cells) was 20 to 200 nM, the IC50 (FGFR1) was < 20 nM and the IC50 [1] was < 100 nM. The kinase selectivity [2] was “greater than 100 times”, the IC50 (FGFR4) was > 200 nM and the “absorption and metabolism properties in rats and mice” value [3] was “good absorption and metabolism properties in rats and mice”. The anti-tumor rate (xenograft tumors) was “more than 80%” and the ADME properties [4] was “better ADME properties”.
